Test results reported in patent US8753841B2, “Enzyme that catalyzes a peptide-forming reaction from a carboxy component and an amine component, microbe producing the same, and a method of producing a dipeptide using the enzyme or microbe” (Ajinomoto Co., Inc., priority 2002, dated 2014).
Marks after values point to notes of the source that are not given here. *: point of attachment. OtBu = CC(C)(C)O*; tBu = CC(C)(C)*

What was measured:
Format in all cases: biochemical
[1] = test system: peptide-forming enzyme from Empedobacter brevis strain FERM BP-8113; assay: Substrate specificity of enzyme (peptide production from carboxy and amine components); set-up: key to Formed peptide (mM): +: those peptides for which production was confirmed but which were unable to be quantified due to the absence of a standard; a trace amount; conditions: pH 9.0, 25° C.; for Formed peptide / Formed peptide (mM): L-amino acid methyl ester hydrochloride 100 mM, 3 hours; for L-Ala-L-Gln formed: carboxy component 100 mM, 200 mM L-glutamine, 2 hours
Source text: Ester specificity was examined in the case of using L-amino acid ester for the carboxy component. […] HCl represents hydrochloride in Table 4.
Peptide production was examined in the case of using L-alanine methyl ester for the carboxy component and using various L-amino acids for the amine component.
Peptide production was examined in the case of using various types of L-amino acid methyl esters for the carboxy component and using L-glutamine for the amine component. […] Furthermore, Tween-80 was added to the reaction system to a final concentration of 0.1% in the case of using L-Trp-OMe and L-Tyr-OMe.

[2] = test system: enzyme derived from Sphingobacterium sp. strain FERM BP-8124; assay: Substrate specificity of enzyme derived from Sphingobacterium sp.; set-up: key to Produced peptide (mM): +: those peptides for which production was confirmed but which were unable to be quantified due to the absence of a standard; a trace amount; conditions: carboxy component 100 mM, 0.33 units enzyme, pH 9.0, 25° C., 1.5 hours
[3] = test system: peptide-forming enzyme from Empedobacter brevis strain FERM BP-8113; assay: Substrate specificity of enzyme (peptide production from carboxy and amine components); set-up: key to Formed peptide (mM): +: those peptides for which production was confirmed but which were unable to be quantified due to the absence of a standard; a trace amount
[4] = Table 15-3, amine component 150 mM
[5] = L or D amino acid methyl ester hydrochloride 100 mM, L or D amino acid 150 mM, pH 9.0, 25° C., 3 hours
[6] = β-amino acid ester or β-amino acid, carboxy component 100 mM, amine component 150 mM, pH 9.0, 25° C., 3 hours
[7] = Table 15-1, amine component 150 mM
[8] = carboxy component 100 mM, peptide amine component 150 mM, pH 9.0, 25° C., 3 hours
[9] = carboxy component 100 mM, amine component 150 mM, 0.1 unit enzyme, 25° C., reaction time 3 hr
[10] = oligopeptide production, amine component 150 mM
[11] = Table 15-4, amine component 150 mM
[12] = amino acid methyl ester hydrochloride 100 mM, methylamine 150 mM, pH 9.0, 25° C., 3 hours
[13] = carboxy component 100 mM, amine component 150 mM, 0.1 unit enzyme, 25° C., reaction time 2 hr

Compound: Gly-L-CySH
- Formed peptide ([1]; L-amino acid 150 mM): 45.6 mM

Compound: L-Met-L-Gln
- Produced peptide ([2]; Table 15-2, L-Gln 150 mM): 32.6 mM
- Formed peptide ([1]; 150 mM L-glutamine): 12.0 mM

Compound: Gly-L-Arg
- Produced peptide [2, 4]: 17.9 mM
- Formed peptide ([1]; L-amino acid 150 mM): 25.5 mM

Compound: D-Met-D-Ser
- Formed peptide [3, 5]: 2.7 mM

Compound: L-Met-L-Met
- Produced peptide [2, 4]: 28.4 mM
- Formed peptide ([1]; L-amino acid 150 mM): 25.0 mM

Compound: β-Ala-L-α-Ala
- Formed peptide (mM) [3, 6]: tr

Compound: L-Ala-L-CySH
- Produced peptide (mM) [2, 7]: +

Compound: C[C@H](N)C(=O)OC(C)(C)C.Cl [L-Alanine-t-butyl ester•HCl]
- L-Ala-L-Gln formed [1]: 7.5 mM

Compound: Gly-Gly-L-Gln
- Produced peptide [3, 8]: 7.2 mM

Compound: H-Aib-H-Gln-OH
- Produced peptide [3, 9]: 18.8 mM

Compound: L-Thr-Gly-Gly
- Produced peptide [2, 10]: 8.4 mM
- Produced peptide [3, 8]: 83.0 mM

Compound: L-Asn-L-Glu
- Formed peptide ([1]; L-amino acid 150 mM): 10.2 mM

Compound: CNC(=O)[C@@H](N)[C@@H](C)O [L-Thr-methylamine]
- Produced peptide [2, 11]: 0.3 mM
- Formed peptide [3, 12]: 0.2 mM

Compound: L-Phe-L-Ser
- Formed peptide ([3]; L-amino acid amide hydrochloride 100 mM as carboxy component, L-amino acid 150 mM, pH 9.0, 25° C., 3 hours): 0.6 mM

Compound: L-Ala-L-Lys
- Produced peptide [2, 7]: 71.2 mM

Compound: L-Val-L-Gln
- Produced peptide ([2]; Table 15-2, L-Gln 150 mM): 8.2 mM
- Formed peptide ([1]; 150 mM L-glutamine): 15.4 mM

Compound: L-CySH-L-Gln
- Formed peptide (mM) ([1]; 150 mM L-glutamine): +

Compound: γ-L-Glu-L-Gln
- Formed peptide (mM) ([1]; 150 mM L-glutamine): +

Compound: L-Leu-L-Met
- Formed peptide ([1]; L-amino acid 150 mM): 12.2 mM

Compound: Gly-L-Gln
- Produced peptide ([2]; Table 15-2, L-Gln 150 mM): 61.1 mM
- Formed peptide ([1]; 150 mM L-glutamine): 54.7 mM

Compound: L-Val-D-Ser
- Formed peptide [3, 5]: 1.4 mM

Compound: Gly-Gly-L-Tyr-L-Ala
- Produced peptide [3, 8]: 44.2 mM

Compound: D-Ser-D-Ser
- Formed peptide [3, 5]: 2.5 mM

Compound: L-Pro-L-Gln
- Produced peptide ([2]; Table 15-2, L-Gln 150 mM): 1.8 mM
- Formed peptide ([1]; 150 mM L-glutamine): 2.2 mM

Compound: L-Ala-L-Pro
- Produced peptide [2, 7]: 1.5 mM

Compound: L-Thr-D-Ser
- Formed peptide [3, 5]: 6.9 mM

Compound: H-Ala-t-Leu-OH
- Produced peptide [3, 9]: 0.4 mM

Compound: L-Asn-L-Gln
- Formed peptide (mM) ([1]; 150 mM L-glutamine): +

Compound: L-Ala-L-Trp
- Produced peptide [2, 7]: 46.0 mM

Compound: Gly-L-Lys
- Produced peptide [2, 4]: 48.2 mM
- Formed peptide ([1]; L-amino acid 150 mM): 9.8 mM

Compound: D-Ala-D-Gln
- Formed peptide (mM) [3, 5]: tr

Compound: α-L-Glu-L-Gln
- Formed peptide (mM) ([1]; 150 mM L-glutamine): +

Compound: H-Ala-Ser(tBu)-OH
- Produced peptide [3, 13]: 48.8 mM

Compound: L-Ala-L-Asn
- Produced peptide [2, 7]: 52.3 mM

Compound: COC(=O)[C@H](C)N.Cl [L-Alanine methyl ester•HCl, L-alanine methyl ester hydrochloride]
- L-Ala-L-Gln formed [1]: 84.3 mM

Compound: H-Asp(OtBu)-Gln-OH
- Produced peptide [3, 13]: 0.9 mM

Compound: D-Thr-L-Ser
- Formed peptide [3, 5]: 1.0 mM

Compound: L-Ala-L-His-L-Ala
- Produced peptide [2, 10]: 58.0 mM
- Produced peptide [3, 8]: 55.9 mM

Compound: L-Ala-Gly-L-Ala
- Produced peptide [2, 10]: 35.1 mM
- Produced peptide [3, 8]: 25.9 mM

Compound: L-Ile-L-Gln
- Produced peptide ([2]; Table 15-2, L-Gln 150 mM): 6.4 mM
- Formed peptide ([1]; 150 mM L-glutamine): 8.4 mM

Compound: β-Ala-β-Ala
- Formed peptide [3, 6]: 0.2 mM

Compound: L-Ala-Gly
- Produced peptide [2, 7]: 11.1 mM

Compound: L-Trp-L-Gln
- Formed peptide (mM) ([1]; 150 mM L-glutamine): +

Compound: CCOC(=O)[C@H](C)N.Cl [L-Alanine ethyl ester•HCl]
- L-Ala-L-Gln formed [1]: 91.5 mM

Compound: L-Tyr-Gly-Gly-L-Phe-L-Met
- Produced peptide ([3]; oligopeptide production, amount of enzyme 1.0 unit, pH 9.0, 25° C., 3 hours): 2.7 mM

Compound: L-Ala-L-Tyr
- Produced peptide [2, 7]: 11.1 mM

Compound: L-Ala-L-Ala-L-Ala-L-Ala-L-Ala
- Produced peptide [2, 10]: 22.8 mM
- Produced peptide [3, 8]: 34.8 mM

Compound: L-Thr-Gly
- Produced peptide [2, 4]: 0.4 mM
- Formed peptide ([1]; L-amino acid 150 mM): 9.4 mM

Compound: D-Val-L-Ser
- Formed peptide [3, 5]: 0.6 mM

Compound: CNC(=O)C(C)N [L-Ala-methylamine]
- Produced peptide [2, 11]: 0.6 mM
- Formed peptide [3, 12]: 0.3 mM

Compound: L-Ala-L-Ala-L-Ala-L-Ala-L-Ala-L-Ala
- Produced peptide (mM) ([3]; carboxy component 10 mM, amine component 15 mM, pH 9.0, 25° C., 3 hours): 1.4* mM

Compound: L-Thr-L-Ala
- Produced peptide [2, 4]: 5.8 mM
- Formed peptide ([1]; L-amino acid 150 mM): 9.4 mM

Compound: L-Lys-L-Met
- Formed peptide ([1]; L-amino acid 150 mM): 6.8 mM

Compound: L-Ala-D-Gln
- Formed peptide [3, 5]: 0.3 mM

Compound: H-Ala-Asp(OtBu)-OH
- Produced peptide [3, 13]: 62.6 mM

Compound: CC(C)OC(=O)[C@H](C)N.Cl [L-Alanine isopropyl ester•HCl]
- L-Ala-L-Gln formed [1]: 78.9 mM

Compound: L-Val-L-Ser
- Produced peptide [2, 4]: 31.9 mM
- Formed peptide ([1]; L-amino acid 150 mM): 30.8 mM
